Test results taken from patent US9233095B2, “Small molecule RNase inhibitors and methods of use” (University of Rochester, priority 2011, dated 2016).

Tests used:
S. aureus (MSSA) = assay: CLSI broth microdilution MIC; type: cell-based, Staphylococcus aureus; conditions: strain UAMS-1, the strain's MIC used for time-kill assays
Source text: In some examples, compounds can be further assayed using the Mueller Hinton (MH) broth antibacterial assay as specified by the Clinical and Laboratory Standards Institute MIC broth microdilution protocol (see Methods for Dilution Antimicrobial Susceptibility Tests for Bacteria That Grow Aerobically; Approved Standard, In The Clinical and Laboratory Standards Institute (CLSI, formerly NCCLS), 7th ed., January 2006, 26 (2), M7-A7; see also Performance Standards for Antimicrobial Susceptibility Testing; Eighteenth Informational Supplement, In The Clinical and Laboratory Standards Institute (CLSI, formerly NCCLS), January 2008, 28 (1), M100-S18).
With the exception of RN4220-derivatives, in vitro activities of RNPA1000 against bacteria were determined by the broth microdilution method according to the Clinical and Laboratory Standards Institute (CLSI) guidelines using cation adjusted Mueller-Hinton broth or MH broth supplemented with 5% lysed horse blood (for testing Streptotococcus spp.). Microtiter plates containing serial dilutions of RNPA1000 (0, 4, 8, 16, 32, 64, and 128 μg/ml) were inoculated with 10^5 colony forming units (CFU)/ml and incubated for 18 hr at 37° C. […] The MIC value for each S. aureus strain was determined to be the median score of replicate measurements (n=5). Wells containing concentrations of RNPA1000≧MIC were plated for minimal bactericidal measurement. Where possible, experiments with VRSA strains were performed in a laminar flow hood to minimize potential for equipment contamination. For RN4220 cells containing plasmid vector (pCN51), RnpA overproducing plasmid (pRNPA-S) or RnpA underproducing plasmid (pRNPA-A.S.) in vitro antimicrobial activity of RNPA1000 was performed by the microdilution method as described above, except that cells were grown in Tryptic Soy Broth medium supplemented with 2.5 μM CdCl2 and 0, 1, 2, 4, 8, 16, 32, 64, or 128 μg/ml RNPA1000. Time-kill assays were also performed to monitor the antimicrobial properties of RNPA1000 for S. aureus strain UAMS-1 in the absence and presence of 0.25, 0.5, 2, and 4 times the strain's MIC for oxacillin (1 μg/ml), rifampicin (0.5 μg/ml), vancomycin (2 μg/ml), or daptomycin (1 μg/ml). The indicated amount of RNPA1000 and/or commercial antibiotic were added to mid-exponential phase (2×10^8 cfu/ml) S. aureus strain UAMS-1 cells and incubated at 37° C. Aliquots were removed at 0, 2, 4, 8, and 24 hr post-antimicrobial challenge, serial diluted, and plated to enumerate resulting cfu/ml. All time-kill assays were repeated at least 3 times.

S. aureus strain Smith = assay: acute lethal model of infection; type: in vivo, CD-1 mice; conditions: 5 days
Experimental: Because RNPA1000 was not toxic during short- and only mildly toxic during extended-HepG2 exposure, it could serve as an appropriate tool to assess whether RnpA-inhibitory molecules are efficacious in a systemic mouse infection model. […] RNPA1000 was solubilized in 1:1 mixture of DMSO and PEG400; Vancomycin was prepared in water. Animals (5/dose group) were administered 16, 64, and 256 mg/kg or 0.25, 1, 4, and 16 mg/kg of RNPA1000 or Vancomycin, respectively, at 30 min post infection by subcutaneous injection (0.2 ml). The percent surviving animals receiving no treatment, a single dose of Vancomycin, or RnpA-inhibitor was recorded daily over the course of the study (5 days).
Percent survival refers to a consensus of surviving animals following 5 days post-intraperitoneal S. aureus injection and RNPA1000 administration. The number in parentheses indicates the number of times the experiment was repeated. Each member of non-treated control mice expired within 24 hr bacterial inoculation (0 mg/kg). Vancomycin served as a positive control.

[1] = system: biofilm-associated S. aureus strain UAMS-1; conditions: Weiss et al. 2009, cited from earlier work; for clearance of biofilm-associated S. aureus: 20× MIC over 3 days; for maximal decrease in biofilm-associated bacteria: same model and conditions

CN[C@H](CC(C)C)C(=O)N[C@H]1C(=O)N[C@@H](CC(N)=O)C(=O)N[C@H]2C(=O)N[C@H]3C(=O)N[C@H](C(=O)N[C@H](C(=O)O)c4cc(O)cc(O)c4-c4cc3ccc4O)[C@H](O)c3ccc(c(Cl)c3)Oc3cc2cc(c3O[C@@H]2O[C@H](CO)[C@@H](O)[C@H](O)[C@H]2O[C@H]2C[C@](C)(N)[C@H](O)[C@H](C)O2)Oc2ccc(cc2Cl)[C@H]1O [Vancomycin, vancomycin, reference compound]
MIC of commercial antibiotic (S. aureus (MSSA)): 2 µg/mL
% Survival (S. aureus strain Smith; Vancomycin 0.25 mg/kg s.c.): 0%
% Survival (S. aureus strain Smith; Vancomycin 1 mg/kg s.c.): 100%
% Survival (S. aureus strain Smith; Vancomycin 4 mg/kg s.c.): 100%
% Survival (S. aureus strain Smith; Vancomycin 16 mg/kg s.c.): 100%
clearance of biofilm-associated S. aureus [1]: none of these antibiotics cleared
maximal decrease in biofilm-associated bacteria [1]: 4 log

CCCCCCCCCC(=O)N[C@@H](Cc1c[nH]c2ccccc12)C(=O)N[C@H](CC(N)=O)C(=O)N[C@@H](CC(=O)O)C(=O)N[C@@H]1C(=O)NCC(=O)N[C@@H](CCCN)C(=O)N[C@@H](CC(=O)O)C(=O)N[C@H](C)C(=O)N[C@@H](CC(=O)O)C(=O)NCC(=O)N[C@H](CO)C(=O)N[C@@H]([C@H](C)CC(=O)O)C(=O)N[C@@H](CC(=O)c2ccccc2N)C(=O)O[C@@H]1C [daptomycin]
MIC of commercial antibiotic (S. aureus (MSSA)): 1 µg/mL
clearance of biofilm-associated S. aureus [1]: none of these antibiotics cleared
maximal decrease in biofilm-associated bacteria [1]: 6 log

Cc1onc(-c2ccccc2)c1C(=O)N[C@@H]1C(=O)N2[C@@H]1SC(C)(C)[C@@H]2C(=O)O [oxacillin]
MIC of commercial antibiotic (S. aureus (MSSA)): 1 µg/mL

CO[C@H]1/C=C/O[C@@]2(C)Oc3c(C)c(O)c4c(O)c(c(/C=N/N5CCN(C)CC5)c(O)c4c3C2=O)NC(=O)/C(C)=C\C=C\[C@H](C)[C@H](O)[C@@H](C)[C@@H](O)[C@@H](C)[C@H](OC(C)=O)[C@@H]1C [rifampicin]
MIC of commercial antibiotic (S. aureus (MSSA)): 0.5 µg/mL

CC(=O)NC[C@H]1CN(c2ccc(N3CCOCC3)c(F)c2)C(=O)O1 [linezolid]
clearance of biofilm-associated S. aureus [1]: none of these antibiotics cleared
maximal decrease in biofilm-associated bacteria [1]: 5 log
